The record followed here is US6506772B1, “Substituted [1,2,4]triazolo[1,5a]pyridine derivatives with activity as adenosine receptor ligands” (Hoffmann-La Roche Inc., priority 2000, dated 2003).

The target of experiment [1] is T1, human adenosine A2A receptor (Homo sapiens, UniProt P29274).
T1 construct: expressed in transfected cells; host or cells: CHO cells, Semliki Forest virus expression system; membrane preparation
The experiment is described as follows: Human adenosine A2A receptor [3H]-SCH-58261 binding assay. Particulars: for selectivity (A1/A2a): ratio KiHA1 divided by KiHA2A; for Ki: recombinant human A2A in CHO cell membranes, [3H]-SCH-58261, Cheng-Prussoff, read-out: Ki hA2A.

Experiment [2] deals with T2, HA1 adenosine receptor (Homo sapiens, UniProt P30542).
T2 sequence (P30542 1-326): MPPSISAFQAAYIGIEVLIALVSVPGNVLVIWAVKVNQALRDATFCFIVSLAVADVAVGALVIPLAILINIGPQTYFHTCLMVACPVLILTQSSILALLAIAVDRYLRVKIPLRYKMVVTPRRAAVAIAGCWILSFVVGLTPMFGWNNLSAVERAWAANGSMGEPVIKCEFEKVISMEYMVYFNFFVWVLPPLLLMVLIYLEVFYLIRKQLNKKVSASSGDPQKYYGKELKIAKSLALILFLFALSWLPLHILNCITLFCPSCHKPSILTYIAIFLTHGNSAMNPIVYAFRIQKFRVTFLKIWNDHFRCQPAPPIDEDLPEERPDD
Briefly: Human adenosine A1 receptor affinity (Ki hA1). Type of experiment: binding.

T1 sequence (P29274 whole entry): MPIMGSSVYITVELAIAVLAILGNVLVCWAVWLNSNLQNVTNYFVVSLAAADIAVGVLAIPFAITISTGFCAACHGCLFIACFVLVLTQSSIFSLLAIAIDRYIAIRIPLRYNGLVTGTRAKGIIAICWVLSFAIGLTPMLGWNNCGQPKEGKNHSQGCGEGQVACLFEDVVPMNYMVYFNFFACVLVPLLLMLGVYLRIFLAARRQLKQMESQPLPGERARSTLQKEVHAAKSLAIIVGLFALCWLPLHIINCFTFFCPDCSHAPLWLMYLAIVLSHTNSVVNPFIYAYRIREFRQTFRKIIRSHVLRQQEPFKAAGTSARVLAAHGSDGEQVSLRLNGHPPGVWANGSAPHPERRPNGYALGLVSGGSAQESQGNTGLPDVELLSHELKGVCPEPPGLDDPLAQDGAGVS

Turning to `NC(=O)C1CCCN(C(=O)c2cc(N)n3nc(-c4ccc(Br)o4)nc3c2)C1` (stereo not drawn) [Example 394, 1-[5-Amino-2-(5-bromo-furan-2-yl)-[1,2,4]triazolo[1,5-a]pyridine-7-carbonyl]-piperidine-3-carboxylic acid amide], the “selectivity (A1/A2a)” value in experiment [1] amounted to 37.9. In addition, the Ki in experiment [1] was found to be 11 nM; in experiment [2], 417 nM.
The like results for `COCCN(C)C(=O)c1cc(N)n2nc(-c3ccc(Br)o3)nc2c1` [Example 395, 5-Amino-2-(5-bromo-furan-2-yl)-[1,2,4]triazolo[1,5-a]pyridine-7-carboxylic acid (2-methoxy-ethyl)-methyl-amide] were, in that order, 44, 6.7 nM and 295 nM.
The like results for `CCN(CCOC)C(=O)c1cc(N)n2nc(-c3ccc(Br)o3)nc2c1` [Example 396, 5-Amino-2-(5-bromo-furan-2-yl)-[1,2,4]triazolo[1,5-a]pyridine-7-carboxylic acid ethyl-(2-methoxy-ethyl)-amide] were, in that order, 48.7, 3.5 nM and 170 nM.
With `COCCN(C)C(=O)c1cc(N)n2nc(-c3nccs3)nc2c1` [Example 397, 5-Amino-2-thiazol-2-yl-[1,2,4]triazolo[1,5-a]pyridine-7-carboxylic acid (2-methoxy-ethyl)-methyl-amide], in experiment [1], the “selectivity (A1/A2a)” value is on record as 18.4. Besides, the Ki in experiment [1] was 298 nM; in experiment [2], 5490 nM.
The like results for `COC[C@@H]1CCCN1C(=O)c1cc(N)n2nc(-c3nccs3)nc2c1` [Example 400, (5-Amino-2-thiazol-2-yl-[1,2,4]triazolo[1,5-a]pyridin-7-yl)-(S-2-methoxymethyl-pyrrolidin-1-yl)-methanone] were, in that order, 53.3, 83.7 nM and 4460 nM.
The like results for `COC[C@H]1CCCN1C(=O)c1cc(N)n2nc(-c3nccs3)nc2c1` [Example 401, (5-Amino-2-thiazol-2-yl-[1,2,4]triazolo[1,5-a]pyridin-7-yl)-(R-2-methoxymethyl-pyrrolidin-1-yl)-methanone] were, in that order, 66.4, 51.9 nM and 3440 nM.
The like results for `CCC1CCC(C)N(C(=O)c2cc(N)n3nc(-c4nccs4)nc3c2)C1` (stereo not drawn) [Example 404, (5-Amino-2-thiazol-2-yl-[1,2,4]triazolo[1,5-a]pyridin-7-yl)-(5-ethyl-2-methyl-piperidin-1-yl)-methanone] were, in that order, 13.3, 94.3 nM and 1250 nM.
For the molecule `CC(C)CN(CC(C)C)C(=O)c1cc(N)n2nc(-c3nccs3)nc2c1` [Example 405, 5-Amino-2-thiazol-2-yl-[1,2,4]triazolo[1,5-a]pyridine-7-carboxylic acid diisobutylamide], in experiment [1], the “selectivity (A1/A2a)” value is given as 23.2 and the Ki amounted to 43.3 nM. This molecule also returned a Ki in experiment [2] of 1000 nM.
For the molecule `CCN(C)C(=O)c1cc(N)n2nc(-c3ccccn3)nc2c1` [Example 406, 5-Amino-2-pyridin-2-yl-[1,2,4]triazolo[1,5-a]pyridine-7-carboxylic acid ethyl-methyl-amide], in experiment [1], the “selectivity (A1/A2a)” value is listed as 26.8 and the Ki came to 147 nM. Besides, in experiment [2], the affinity, expressed as Ki, was 3930 nM.
The like results for `C#CCN(C)C(=O)c1cc(N)n2nc(-c3ccccn3)nc2c1` [Example 407, 5-Amino-2-pyridin-2-yl-[1,2,4]triazolo[1,5-a]pyridine-7-carboxylic acid methyl-prop-2-ynyl-amide] were, in that order, 26.5, 69.1 nM and 1830 nM.
The like results for `Nc1cc(C(=O)N2CC=CC2)cc2nc(-c3ccccn3)nn12` [Example 408, (5-Amino-2-pyridin-2-yl-[1,2,4]triazolo[1,5-a]pyridin-7-yl)-(2,5-dihydro-pyrrol-1-yl)-methanone] were, in that order, 14.9, 91.8 nM and 1370 nM.
The like results for `C=CCN(C)C(=O)c1cc(N)n2nc(-c3ccccn3)nc2c1` [Example 409, 5-Amino-2-pyridin-2-yl-[1,2,4]triazolo[1,5-a]pyridine-7-carboxylic acid allyl-methyl-amide] were, in that order, 16.5, 99.8 nM and 1650 nM.
Consider `CC(C)N(C)C(=O)c1cc(N)n2nc(-c3ccccn3)nc2c1` [Example 411, 5-Amino-2-pyridin-2-yl-[1,2,4]triazolo[1,5-a]pyridine-7-carboxylic acid isopropyl-methyl-amide], for which, in experiment [1], the “selectivity (A1/A2a)” value was 22.6 and the Ki stood at 62.3 nM. The Ki in experiment [2] is 1410 nM.
The like results for `CCCN(C)C(=O)c1cc(N)n2nc(-c3ccccn3)nc2c1` [Example 412, 5-Amino-2-pyridin-2-yl-[1,2,4]triazolo[1,5-a]pyridine-7-carboxylic acid methyl-propyl-amide] were, in that order, 25.4, 119 nM and 3020 nM.
The like results for `CC1CCCN1C(=O)c1cc(N)n2nc(-c3ccccn3)nc2c1` (stereo not drawn) [Example 413, (5-Amino-2-pyridin-2-yl-[1,2,4]triazolo[1,5-a]pyridin-7-yl)-(2-methyl-pyrrolidin-1-yl)-methanone] were, in that order, 37.8, 37.8 nM and 1430 nM.
The like results for `CCN(C(=O)c1cc(N)n2nc(-c3ccccn3)nc2c1)C(C)C` [Example 414, 5-Amino-2-pyridin-2-yl-[1,2,4]triazolo[1,5-a]pyridine-7-carboxylic acid ethyl-isopropyl-amide] were, in that order, 15.8, 56 nM and 885 nM.
As for `CC1C=CC(C)N1C(=O)c1cc(N)n2nc(-c3ccccn3)nc2c1` (stereo not drawn) [Example 415, (5-Amino-2-pyridin-2-yl-[1,2,4]triazolo[1,5-a]pyridin-7-yl)-(2,5-dimethyl-2,5-dihydro-pyrrol-1-yl)-methanone], the “selectivity (A1/A2a)” value in experiment [1] came out at 3.6. Moreover, the Ki in experiment [1] stood at 75.4 nM; in experiment [2], 274 nM.
The like results for `C=CCN(CC=C)C(=O)c1cc(N)n2nc(-c3ccccn3)nc2c1` [Example 416, 5-Amino-2-pyridin-2-yl-[1,2,4]triazolo[1,5-a]pyridine-7-carboxylic acid diallylamide] were, in that order, 17.4, 48.1 nM and 835 nM.
The like results for `Nc1cc(C(=O)N2CCCCCC2)cc2nc(-c3ccccn3)nn12` [Example 417, (5-Amino-2-pyridin-2-yl-[1,2,4]triazolo[1,5-a]pyridin-7-yl)-azepan-1-yl-methanone] were, in that order, 31.5, 16.9 nM and 532 nM.
The like results for `CC1CCCCN1C(=O)c1cc(N)n2nc(-c3ccccn3)nc2c1` (stereo not drawn) [Example 418, (5-amino-2-pyridin-2-yl-[1,2,4]triazolo[1,5-a]pyridin-7-yl)-(2-methyl-piperidin-1-yl)-methanone] were, in that order, 24.2, 42.4 nM and 1020 nM.
